Measurements as given in BindingDB's records for doi:10.1016/j.bmcl.2012.05.078 (University of Milan, 2012).

Experiment: Inhibition of Met-triggered cell scattering in HGF-stimulated MDCK cells preincubated for overnight before HGF challenge measured after 24 to 48 hrs

| SMILES | IC50 [nM] |
| --- | --- |
| O=C(Cc1cc(C(F)(F)F)cc(C(F)(F)F)c1)N[C@H](Cc1ccccc1)C(=O)Nc1ccc(-c2cn3c(n2)sc2ccccc23)cc1 | 200 |
| O=C(Cc1cc(C(F)(F)F)cc(C(F)(F)F)c1)NC(Cc1ccccc1)c1cn(-c2ccc(-c3cn4c(n3)sc3ccccc34)cc2)nn1 (centres undefined) | 600 |
| O=C(Cc1cc(C(F)(F)F)cc(C(F)(F)F)c1)N[C@@H](Cc1ccccc1)C(=O)Nc1ccc(-c2cn3c(n2)sc2ccccc23)cc1 | 200 |
| Cc1[nH]c(/C=C2\C(=O)Nc3ccc(S(=O)(=O)N(C)c4cccc(Cl)c4)cc32)c(C)c1C(=O)N1CCN(C)CC1 [(3Z)-N-(3-CHLOROPHENYL)-3-({3,5-DIMETHYL-4-[(4-METHYLPIPERAZIN-1-YL)CARBONYL]-1H-PYRROL-2-YL}METHYLENE)-N-METHYL-2-OXOINDOLINE-5-SULFONAMIDE] | 200 |
